Here are results for 37 molecules from PubChem BioAssay (NCI).

Values joined by “and” are separate entries in the source; they are usually repeats but may differ in a detail not shown here. Identical values can stand only once.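 Briefly, cells in 96-well plates were exposed to five compound concentrations for 48 h, and endpoints were estimated by linear interpolation. GI50 is the concentration that inhibits growth by half. The concentration for full growth arrest is given as TGI.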

The test system of the assay is MDA-MB-468 breast. Kind of assay: DTP human tumour cell line panel, 48 h.
As usually defined, the GI50 is the concentration at which growth is held to half of that of the control. Usually TGI stands for the concentration at which net growth stops. As for `CN(C)c1ccc(/C=N/NC(=O)CSc2nc3sc4c(c3c(=O)n2-c2ccccc2)CCCCC4)cc1`, the GI50 was 3.85 µM and the TGI was over 100 µM.

Turning to `COc1ccc2[nH]cc(/C=N/Nc3ccnc4cc(Cl)ccc34)c2c1`, the GI50 was 1.13 µM and the TGI is 2.6 µM. Consider `COc1ccc(C2CC(c3ccc4ccccc4c3)=NN2/C=C2\SC(=S)N(NC(=O)Cc3ccccc3Nc3c(Cl)cccc3Cl)C2=O)cc1` (stereo unspecified), for which the GI50 is 0.544 µM and the concentration for total growth inhibition (TGI) is over 34.2 µM.

As for `CC(C)C[C@H](NC(=O)[C@H](Cc1ccccc1)NC(=O)c1cnccn1)B(O)O`, the GI50 is < 0.01 µM and 0.0019 µM; the total growth inhibition concentration (TGI) was < 0.01 µM and 0.0052 µM.

As to `O=C(/C=C/c1ccccc1)Nc1ncc(Cc2ccccc2)s1`, the GI50 is 0.416 µM and the TGI is over 100 µM. In the case of `c1cc2c(cc1NC1=NCCO1)CCCC2`, the GI50 is 6.18 µM and the TGI came to 24.8 µM. For `COc1ccc(Nc2[nH]n(C3=Nc4ccccc4Sc4ccccc43)c(=O)c2C#N)cc1`, the GI50 was 0.382 µM and the TGI was found to be 2.81 µM.

Regarding `CCCCCCCC(=O)SCC/C=C/[C@@H]1CC(=O)NCc2cccc(n2)C2=N[C@@](C)(CS2)C(=O)N[C@@H](C(C)C)C(=O)O1`, the GI50 is 0.107 µM and the TGI is over 33.3 µM. For the molecule `CS(=O)(=O)c1nccc(-c2c(-c3cccc(OCc4ccccc4)c3)nc3sccn23)n1`, the GI50 is 1.41 µM and the TGI was found to be 3 µM. `O=C(NCCN1CCOCC1)Nc1nc2ccc(Sc3nnc4ccc(-c5ccc(F)cc5)nn34)cc2s1` had a TGI of over 29.3 µM.

Take `COc1cc(-c2nn(-c3ccc(NC(=O)Nc4ccc(Cl)c(C(F)(F)F)c4)cc3)cc2-c2ccncc2)ccc1Cl`: the GI50 was 1.39 µM and the TGI turned out to be 3.23 µM. For the molecule `COc1ccc(-c2c(-c3cc4c(c(OC)c3OC)OCO4)noc2N)cc1`, the GI50 was 0.192 µM. For `COc1ccc(/C=C(/C(=O)N2CCN(c3ccc(C)cc3)CC2)c2cc(OC)c(OC)c(OC)c2)cc1N`, the GI50 was 0.224 µM.

`OCCNC(=S)Nc1ccc(-c2nc(N3C[C@H]4CC[C@@H](C3)O4)c3cccn3n2)cc1`: the GI50 is 0.0174 µM and the TGI worked out at 0.289 µM. `Cc1ccc(C(=O)Nc2ccc(CN3CCN(C)CC3)c(C(F)(F)F)c2)cc1C#Cc1cnc(N)c2ccc(C#N)cc12`: the GI50 was 0.156 µM and the TGI was found to be 9.63 µM. As for `C/C(=N\NC(=O)c1cccc(S(=O)(=O)N2CCN(C)CC2)c1)c1cc(Cl)ccc1O`, the GI50 was 0.402 µM and the TGI came to 3.87 µM. Consider `COc1ccc(NC(=O)COc2ccccc2)c(C(N)=O)c1`, for which the GI50 is 0.453 µM and the TGI is over 62.8 µM. As to `COc1ccc(C(=O)OC2C(OC3C(O)COC(O[C@H]4C[C@H]5[C@@H]6CC=C7C[C@@H](O)CC[C@]7(C)[C@H]6CC[C@]5(C)[C@H]4[C@H](C)C(=O)CCC(C)C)C3OC(=O)C(C)C)OCC(O)C2O)cc1` (stereo partly specified), the GI50 was 0.0583 µM and the concentration for total growth inhibition (TGI) came out at 3.55 µM. As to `C=C(C)[C@@H]1CC[C@]2(C(=O)N3CCN(C)CC3)CC[C@]3(C)[C@H](CC[C@@H]4[C@@]5(C)C/C(=C/c6ccncc6)[C@H](O)C(C)(C)[C@@H]5CC[C@]43C)[C@@H]12`, the GI50 is 5.45 µM and the TGI was 26.1 µM.

As for `OC1CCN(CCCOc2c3ccccc3nc3c2oc2ccccc23)CC1`, the GI50 is 1.76 µM and the TGI was determined as 4.91 µM. In the same order, the values of `COc1ccccc1CN=C1NC(=O)/C(=C/c2ccc3ncccc3c2)S1` are 3.35 µM and over 25 µM. Turning to `O=c1[nH]ccc2nc(N3CCC(O)CC3)nc(Nc3ccc(N4CCOCC4)cc3)c12`, the GI50 was 43.2 µM and the TGI was over 100 µM. In the same order, the values of `CCN(CC)c1ccc(CNc2cc(C)nc3ccc(OC)cc23)cc1` are 1.02 µM and 2.63 µM.

Regarding `N#Cc1c(N)n(C2OC(CO)C(O)C2O)c2ncnc(N)c12` (stereo unspecified), the GI50 was 0.0173 µM and the TGI was 0.0349 µM. As to `Nc1c(C(=O)c2cccc(C(O)(CO)CO)c2)cnn1-c1ccc(F)cc1`, the GI50 was over 25 µM and the TGI was over 25 µM. As for `Cc1c(C)n(CC(O)CNC2CCCCC2C)c2ccccc12` (stereo unspecified), the GI50 is 9.21 µM and the TGI is 23 µM. On to `COc1cc(/C=C/C(=O)c2ccc(F)cc2)ccc1OCCCCOc1cc2c(cc1OC)C(=O)N1CCCC1C=N2` (stereo unspecified), for which the GI50 was 1.71 µM and the total growth inhibition concentration (TGI) was found to be 3.59 µM.

As for `COc1ccc2nc(-c3ccc(Cl)cc3)cc(-c3nnc(SCC(=O)Nc4ccc(/C(C)=N\O)cc4)o3)c2c1`, the GI50 was 1.38 µM and the TGI was found to be 3.58 µM. With `CC/C=C\C[C@H](O)C/C=C1/C(=O)C=C[C@@H]1C/C=C\CCCC(=O)OCCS(=O)(=O)c1ccccc1`, the GI50 was 2.28 µM and the TGI worked out at 6.83 µM. Consider `COc1ccc2c(c1)O/C(=C\c1ccc([N+](=O)[O-])o1)C2=O`, for which the GI50 was 0.519 µM and the concentration for total growth inhibition (TGI) came out at 2.26 µM. Turning to `Cc1cc(NCCCNc2ccnc3cc(Cl)ccc23)nc(Nc2ccc(C(=O)N3CCCCC3)cc2)n1`, the GI50 is 2.33 µM and the TGI was 4.69 µM. As for `CC[C@]12C=CCN3CC[C@@]4(c5ccc(OC)cc5N(C)[C@H]4[C@@](O)(C(=O)OC)[C@@H]1OC(=O)CCCC[P+](c1ccccc1)(c1ccccc1)c1ccccc1)[C@@H]32`, the GI50 was 0.195 µM and the TGI is 0.575 µM. In the same order, the values of `O=c1ncc(I)c[nH]1` are over 100 µM and over 100 µM. Turning to `O=C(Nc1ccc(-n2ccc3c(NC(=O)c4ccccc4)ncnc32)cc1)Nc1ccc(Cl)c(C(F)(F)F)c1`, the GI50 is 1.44 µM and the TGI came to 3.32 µM. Regarding `Cc1ccccc1NC(=O)N/C(N)=N/c1nc(C)c(C)s1`, the GI50 is 0.224 µM and the TGI was found to be 0.788 µM. On to `Oc1ccccc1/C=N/Nc1nc2ccccc2s1`, for which the GI50 was 2.51 µM and the TGI is 60.7 µM. On to `O=C1C2=C(C(=O)c3c(O)ccc(O)c31)N(c1cccnc1)Cc1ccccc1O2`, for which the GI50 was 0.175 µM and the TGI was 0.458 µM.
